From patent publication US20070248944A1, “Preventive and Remedy for Collagen or Elastin Metabolic Disorder” (YAMAGUCHI UNIVERSITY, priority 2004, published 2007)

Tests used:
[1] = test system: abdominal aortic aneurysm model (angiotensin II-infused apoE knockout mice); assay: JNK inhibition experiment using an apoE knockout mouse aneurysm model (angiotensin II infusion, prevention); assay type: in vivo; conditions: by week 5 after initiation of angiotensin II infusion; control group 6.25%
Description: An abdominal aortic aneurysm model was generated through continuous administration of angiotensin II to apolipoprotein E (apo E) knockout mice according to Daugherty et al's method (J. Clin. Invest. 105: 1605-1612 (2000)). Specifically, mini-osmotic pump (Alzet) was implanted into 24-week-old apoE knockout male mice and angiotensin II (1 μg/min/kg) was continuously infused. These model mice were affected with hyperlipidemia, hypertension, and marked aortic arteriosclerosis. As a result of 4 weeks of angiotensin II infusion, aneurysm formation was observed mainly in the suprarenal abdominal aorta of these mice. Some of these mice died due to aneurysmal rupture. […] Simultaneously with the initiation of continuous infusion of angiotensin II, daily subcutaneous injection of a JNK inhibitor SP600125 (SP group: 8 mice) or a solution (control group: 16 mice) without JNK inhibitor was initiated. The method employed herein for administration of SP600125 was similar to that in Example 1 above. On week 4, the maximum diameter of each abdominal aorta was measured using ultrasonic diagnostic equipment.

[2] = test system: abdominal aortic aneurysm model (angiotensin II-infused apoE knockout mice); assay: Aneurysm therapy and regression in apoE knockout mouse aneurysm model; assay type: in vivo; conditions: 8 weeks of injection; control group 0% ±13%; p<0.05
Description: After completion of 4 weeks of angiotensin II infusion, the lumen diameter of each abdominal aortic aneurysm was measured using ultrasonic diagnostic equipment. The mice were evenly divided into 2 groups based on the measured values. Immediately after grouping, daily subcutaneous injection of the […] inhibitor SP600125 (SP group) or a solution alone (control group) was initiated. The method employed herein for administration of SP600125 and the solution was similar to that in Example 1 above. On week 8 after the initiation of injection, the aneurysm diameter of each abdominal aortic aneurysm was measured again using ultrasonic diagnostic equipment.

MMP-9 = MMP-9 secretion in TNF-α-stimulated THP-1 cells, gelatin zymography; assay type: cell-based, human; conditions: 0, 1, 2, and 5 μM peptide, TNF-α 50 ng/ml, 48 hours
Description: To verify the effects of a JNK inhibitor peptide, an experiment was conducted using MMP-9 as an index, which is thought to be important in the pathogenesis of aneurysms, in a cultured cell system. Cells used herein were macrophage cells (THP-1) mainly expressing MMP-9 in human aneurysms. Specifically, a JNK inhibitor peptide D-JNKI1 (ALEXIS) was administered at various concentrations (0, 1, 2, and 5 μM D-JNKI1) in advance to cultured THP-1 cells. D-TAT (ALEXIS) was used as a control peptide. At 24 hours after peptide administration. the cells were stimulated with TNF-α (50 ng/ml), an inflammatory cytokine. 48 hours later, culture solutions were collected and then the amounts of MMP-9 secreted in the culture solutions were subjected to quantitative analysis by the gelatin zymography method.

[3] = test system: vascular smooth muscle cells isolated from a rat aorta; assay: Collagen synthesis (3H-labeled proline, collagenase-sensitive fraction) in vascular smooth muscle cell primary culture; assay type: cell-based; parameters: dose or concentration left out as unconfirmed; conditions: 72 hours; serum-free media; p<0.01
Description: An experiment was conducted using a vascular smooth muscle cell primary culture system isolated from a rat aorta. Among newly-synthesized proteins into which 3H-labeled proline had been incorporated, fractions that are specifically degraded by collagen degrading enzymes were subjected to quantitative analysis according to Kidwell et al's method (Methods in Enzymology, 147: 407-414 (1987)). 3H-labeled proline (3 μCi/ml) was added to serum-free media to initiate culture. Immediately after culture initiation, a JNK inhibitor peptide (D-JNK1, 0, 1, 2, and 5 mM, ALEXIS) was administered. At 72 hours after peptide administration, proteins in the culture supernatants were collected. Furthermore, only fractions that had been solubilized by collagen degrading enzymes were collected. 3H-labeled proline that had been incorporated for novel collagen synthesis was measured using a scintillation counter.

lysyl oxidase = assay: Lysyl oxidase mRNA expression in serum-deficient vascular smooth muscle cells, real time PCR; assay type: cell-based, rat; parameters: dose or concentration left out as unconfirmed; conditions: serum-deficiency stress; day 6; p<0.01
Description: An experiment was conducted using a vascular smooth muscle cell primary culture system isolated from a rat aorta. Serum deficiency state was created at the initiation of the experiment. JNK of cultured cells was activated by serum-deficiency stress. Immediately after the initiation of the experiment, a JNK inhibitor peptide (D-JNKI1, 5 mM, ALEXIS) was administered. D-TAT (5 mM, ALEXIS) was used as a control peptide. On day 6 after peptide administration, the cells were harvested. Lysyl oxidase expression was subjected to quantitative analysis at the mRNA level using the real time PCR method. Lysyl oxidase (LOX) is an enzyme essential for the maturation of collagen fiber or elastin fiber. Decreased level of LOX indicates lowered ability to synthesize collagen or elastin.

[4] = test system: human abdominal aortic aneurysmal wall tissue; assay: 3H-labeled proline incorporation in human aneurysmal wall culture system; assay type: cell-based; conditions: 5 mM peptide; TNF-α 100 ng/ml; 48 hours; p<0.05
Description: Aneurysmal wall tissue excised at the time of operation of human abdominal aortic aneurysms was chopped and then cultured. The ability of aneurysmal wall to newly synthesize collagen was analyzed using 3H-labeled proline that is abundantly contained in collagen according to the Kidwell et al's method (Methods in Enzymology 147: 407-414 (1987)). Specifically, 3H-labeled proline (3 μCi/ml) was added to media to initiate culture. Immediately after culture initiation, a JNK inhibitor peptide (D-JNKI1, 5 mM, ALEXIS) was administered. D-TAT (5 mM, ALEXIS) was used as a control peptide. At 12 hours after peptide administration, stimulation was performed with TNF-α (R&D Systems, 100 ng/ml) TNF-α is an inflammatory cytokine that is increased in human aortic aneurysms and is known to activate JNK. 48 hours later, proteins in the culture supernatants were collected. 3H-labeled proline that had been incorporated for novel synthesis was measured using a scintillation counter.

| Compound | Cumulative survival rate [1] [%] | Reduction percentage of aneurysm diameter (before vs after injection) [2] | MMP-9 secretion due to TNF-α (MMP-9) | Ability to synthesize collagen [3] [times] | Lysyl oxidase expression level (mRNA) (lysyl oxidase) | 3H-labeled proline incorporation decreased by TNF-α [4] |
| --- | --- | --- | --- | --- | --- | --- |
| Oc1c2ccccc2c2c3c(cccc13)N=N2 [SP600125, Anthra[1-9-cd]pyrazol-6(2H)-one] | 87.5 | 17% ±10% |  |  |  |  |
| c-Jun N-terminal Kinase Peptide Inhibitor 1, D-stereoisomer [D-JNKI1] |  |  | suppressed MMP-9 secretion due to TNF-α in a concentration-dependent manner | 1.6±0.1 | inhibited a decrease in lysyl oxidase expression level | significantly restored |
